Reference: article PMC10762068, “Selective blockade of Cav1.2 (α1C) versus Cav1.3 (α1D) L-type calcium channels by the black mamba toxin calciseptine” (Nature Communications, 2024)
“Also recorded” adds a separate entry of the source. Positions of bridges follow the written chain, without caps; N, C: chain ends. No end group written: not given here.

Legend:
Assay type in all cases: cell-based
[1] = system: human ether-a-go-go-related gene (hERG); experiment: hERG current in Xenopus oocytes; conditions: Cas 1 µM, n=5, Xenopus oocytes, 19-20 °C
Description: Xenopus laevis specimen were purchased from Tefor Paris Saclay. Animal handling and experiments fully conformed to French regulations and were approved by local governmental veterinary services (authorization number E06-152-5 delivered by the Ministère de l’Agriculture, Direction des Services Vétérinaires). Animals were anesthetized by exposure for 20 min to a 0.1% solution of 3-aminobenzoic acid ethyl ester (MS-222) (Sigma) buffered at pH 7.4. Oocytes were surgically removed and dissected away in a saline solution (ND96) containing (in mM) 96 NaCl, 2 KCl, 1.8 CaCl2, 2 MgCl2, and 5 HEPES at pH 7.4 with NaOH. Stage V and VI oocytes were treated for 3 h with collagenase (1 mg/ml, type Ia, Sigma) in the presence of trypsin inhibitor (Sigma) in ND96 to discard follicular cells. pSI-HERG plasmid solutions were injected in nucleus (100 ng/µl, 23 nl/oocyte) using a pressure microinjector. The oocytes were kept at 19 °C in the ND96 saline solution supplemented with penicillin (10 mg/L) and streptomycin (20 mg/L). Oocytes were studied within 2 days following injection of plasmid. In a 0.3-ml perfusion chamber, a single oocyte was impaled with two standard glass microelectrodes (1–2.5 MΩ resistance) filled with 3 M KCl and maintained under voltage- clamp using a Dagan TEV 200 amplifier. […]

[2] = system: Cav2.2 N-type; experiment: Ca2+ current in HEK-293T cells expressing Cav2.2; conditions: Cas 300 nM (n=11/N=3) and 1 µM (n=9/N=3); holding -90 mV, step +20 mV
Description: (§1) HEK-293T (RRID:CVCL_2737) were obtained from the European Collection of Authenticated Cell Cultures (ECACC 96121229). The identity of HEK-293T has been confirmed by STR profiling and the cells have been eradicated from mycoplasma at ECACC. We routinely tested the cells for the absence of the mycoplasma contamination. Cells were cultivated at 37 °C in DMEM supplemented with GlutaMax, 10% fetal bovine serum and 1% penicillin/streptomycin (Invitrogen, Fisher Scientific, France). […]
(§2) Macroscopic currents in HEK-293T cells were recorded at room temperature using an Axopatch 200B or Multiclamp 700B patchclamp amplifier (Molecular Devices, Sunnyvale CA). […]
(§3) In all experiments of cellular electrophysiology, we employed synthetized analog of Cas, commercially available at Latoxan (ID: L8109). […] Its measured molecular mass (7036.26 Da average) was in accordance with the mass calculated from sequence data (7036.22 Da). […]
(§4) n=10/N=3) channels. Peak current density wa s recorded starting f rom a holding potential of -80mV using an activating voltage step at -30mV for Cav3.1, f ro m a holding potential of -90mV using an activating voltage step at +20mV for Cav2.2 and f rom a holding potential of -80mV using an activating voltage step at 0mV for Cav2.1. Exam ples of recorded traces are reported. […]

[3] = system: Cav2.1 P/Q type; experiment: Ca2+ current in HEK-293T cells expressing Cav2.1; conditions: Cas 300 nM (n=10/N=3) and 1 µM (n=10/N=3); holding -80 mV, step 0 mV
Description: as §1, §2, §3, §4

## RICYIHKASLPRATKTCVENTCYKMFIRTQREYISERGCGCPTAMWPYQTECCKGDRCNK (disulfide 3-22, 17-39, 41-52, 53-58 (inferred)) [Cas, calciseptine]
[1]
  effect on hERG current: did not record any difference; also recorded: had no effect
[2]
  effect on Cav2.2 current: failed to detect inhibitory effect; also recorded: had no effect
[3]
  effect on Cav2.1 current: failed to detect inhibitory effect; also recorded: had no effect
